pEC50: −log10 of the molar value. A value given as a limit tells only on which side of the number the result lay.

In the first assay the test system is HCV replicon. Nature of the assay: HCV replicon replication assay (NPT ELISA) in Huh-7 replicon-containing cells. The assay is classed as cell-based. To be noted: Hepatitis C virus, 72 h; HCV replicon in Huh-7 cells, three days incubation; read-out: EC50. An outline of the steps:
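Huh-7 cells carrying a bicistronic HCV replicon (HCV-IRES-neo, EMCV-IRES-driven NS3–NS5B, 3′-NTR) were seeded at 6000-7500 cells/well, grown 24 h to 60-70% confluence, then treated with graded compound concentrations. Replication was read as NPT level by capture ELISA (rabbit anti-NPTII, Eu-N1 secondary); interferon alpha served as positive control.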
Consider `C=CC1C[C@]1(NC(=O)[C@@H]1C[C@@H](Oc2cc(-c3ccccc3)nc3cc(OC)ccc23)CN1C(=O)[C@@H](CC(=O)N1CCCCC1)CC(C)C)C(=O)NS(=O)(=O)C1CC1` (stereo partly drawn) [Compound 91, (2S,4R)-N-((1R,2R)-1-(cyclopropyl-sulfonylcarbamoyl)-2-vinylcyclopropyl)-4-(7-methoxy-2-phenylquinolin-4-yloxy)-1-((R)-4-methyl-2-(2-oxo-2-(piperidin-1-yl)ethyl)pentano-yl)pyrrolidine-2-carboxamide], for which the pEC50 is more than 6.00.
With `C=C[C@@H]1CC1(NC(=O)[C@@H]1C[C@@H](Oc2cc(-c3ccccn3)nc3c(C)c(OC)ccc23)CN1C(=O)[C@@H](CC(=O)N1CCC(C(F)(F)F)CC1)C(C)(C)C)C(=O)NS(=O)(=O)C1CC1` (mixture of isomers) [Compound 249, (2S,4R)-1-((S)-2-tert-butyl-4-oxo-4-(4-(trifluoro-methyl)piperidin-1-yl)butanoyl)-N-((S)-1-(cyclopropyl-sulfonylcarbamoyl)-2-vinylcyclopropyl)-4-(7-methoxy-8-methyl-2-(pyridin-2-yl)quinolin-4-yloxy)pyrrolidine-2-carboxamide], the pEC50 is more than 6.00.
Same read-out and setting: in the case of `C=C[C@@H]1C[C@]1(NC(=O)[C@@H]1C[C@@H](Oc2cc(-c3ccccn3)nc3c(C)c(OC)ccc23)CN1C(=O)[C@@H](CC(=O)N1CCCC(F)(F)C1)C(C)(C)C)C(=O)NS(=O)(=O)C1CC1` [Compound 246, (2S,4R)-1-((S)-2-tert-butyl-4-(3,3-difluoropiperidin-1-yl)-4-oxobutanoyl)-N-((2S)-1-(cyclopropyl-sulfonylcarbamoyl)-2-vinylcyclopropyl)-4-(7-methoxy-8-methyl-2-(pyridin-2-yl)quinolin-4-yloxy)pyrrolidine-2-carboxamide] it was more than 6.00; in that of `C=C[C@@H]1C[C@]1(NC(=O)[C@@H]1C[C@@H](Oc2cc(-c3ccccc3)nc3cc(OC)ccc23)CN1C(=O)[C@@H](CC(=O)N1CCC(N(C)C(=O)OC(C)(C)C)C1)C(C)(C)C)C(=O)NS(=O)(=O)C1CC1` (stereo partly drawn) [Compound 161, tert-butyl 1-((S)-3-((2S,4R)-2-((1R,2S)-1-(cyclopropyl-sulfonylcarbamoyl)-2-vinylcyclopropyl-carbamoyl)-4-(7-methoxy-2-phenylquinolin-4-yloxy)pyrrolidine-1-carbonyl)-4,4-dimethyl-pentanoyl)pyrrolidin-3-yl(methyl)carbamate], more than 6.00.
Turning to `C=C[C@@H]1C[C@]1(NC(=O)[C@@H]1C[C@@H](Oc2cc(-c3ccccc3)nc3c(OC)cccc23)CN1C(=O)[C@@H](CC(=O)N1CCCCC1)C(C)(C)C)C(=O)NS(=O)(=O)C1CC1` [Compound 231, (2S,4R)-1-((S)-2-tert-butyl-4-oxo-4-(piperidin-1-yl)butanoyl)-N-((2S)-1-(cyclopropyl-sulfonylcarbamoyl)-2-vinylcyclopropyl)-4-(8-methoxy-2-phenylquinolin-4-yloxy)pyrrolidine-2-carboxamide], the pEC50 is more than 6.00.
Same read-out and setting: in the case of `C=C[C@@H]1C[C@]1(NC(=O)[C@@H]1C[C@@H](Oc2cc(-c3ccccc3)nc3cc(OC)ccc23)CN1C(=O)[C@@H](CC(=O)N1CCC(C(F)(F)F)CC1)C(C)(C)C)C(=O)NS(=O)(=O)C1CC1` [Compound 80, (2S,4R)-1-((S)-2-tert-butyl-4-oxo-4-(4-(trifluoro-methyl)piperidin-1-yl)butanoyl)-N-((1R,2S)-1-(cyclopropyl-sulfonylcarbamoyl)-2-vinylcyclopropyl)-4-(7-methoxy-2-phenylquinolin-4-yloxy)pyrrolidine-2-carboxamide] it was more than 6.00.
With `C=CC1C[C@]1(NC(=O)[C@@H]1C[C@@H](Oc2cc(-c3csc(C(C)C)n3)nc3c(C)c(OC)ccc23)CN1C(=O)[C@@H](CC(=O)N1CCCC(F)(F)C1)C(C)(C)C)C(=O)NS(=O)(=O)C1CC1` (stereo partly drawn) [Compound 254, (2S,4R)-1-((S)-2-tert-butyl-4-(3,3-difluoropiperidin-1-yl)-4-oxobutanoyl)-N-((1R)-1-(cyclopropyl-sulfonylcarbamoyl)-2-vinylcyclopropyl)-4-(2-(2-isopropylthiazol-4-yl)-7-methoxy-8-methylquinolin-4-yloxy)pyrrolidine-2-carboxamide], the pEC50 is more than 6.00.
Same read-out and setting: under `C=CC1C[C@]1(NC(=O)[C@@H]1C[C@@H](NC(=O)c2cc(-c3ccccc3)nc3ccccc23)CN1C(=O)[C@@H](CC(=O)N1CCC(C(F)(F)F)CC1)C(C)(C)C)C(=O)NS(=O)(=O)C1CC1` (stereo partly drawn) [Compound 199, N-((3R,5S)-1-((S)-2-tert-butyl-4-oxo-4-(4-(trifluoromethyl)piper-idin-1-yl)butanoyl)-5-((1R,2S)-1-(cyclo-propylsulfonyl-carbamoyl)-2-vinyl-cyclopropyl-carbamoyl)pyrrolidin-3-yl)-2-phenylquinoline-4-carboxamide] stands more than 6.00; under `C=C[C@@H]1CC1(NC(=O)[C@@H]1C[C@@H](Oc2nc(-c3ccccn3)cc3c(Cl)c(OC)ccc23)CN1C(=O)[C@@H](CC(=O)N1CCC(C(F)(F)F)CC1)C(C)(C)C)C(=O)NS(=O)(=O)C1CC1` (mixture of isomers) [Compound 245, (2S,4R)-1-((S)-2-tert-butyl-4-oxo-4-(4-(trifluoro-methyl)piperidin-1-yl)butanoyl)-4-(5-chloro-6-methoxy-3-(pyridin-2-yl)isoquinolin-1-yloxy)-N-((S)-1-(cyclopropyl-sulfonylcarbamoyl)-2-vinylcyclo-propyl)pyrrolidine-2-carboxamide], more than 6.00; under `C=C[C@@H]1C[C@]1(NC(=O)[C@@H]1C[C@@H](OC(=O)N2c3ccccc3CCc3ccccc32)CN1C(=O)[C@@H](CC(=O)N1CCCCC1)C(C)(C)C)C(=O)NS(=O)(=O)C1CC1` [Compound 130, (3R,5S)-1-((S)-2-tert-butyl-4-oxo-4-(piperidin-1-yl)butanoyl)-5-((1R,2S)-1-(cyclo-propylsulfonyl-carbamoyl)-2-vinyl-cyclopropylcarbamo-yl)pyrrolidin-3-yl 10,11-dihydro-5H-dibenzo[b,f]azepine-5-carboxylate], 5.00 to 6.00.
On to `C=C[C@@H]1C[C@]1(NC(=O)[C@@H]1C[C@H](Oc2cc(-c3ccccc3)nc3cc(OC)ccc23)CN1C(=O)[C@@H](CC(=O)N1CCCCC1)C(C)(C)C)C(=O)NS(=O)(=O)C1CC1` [Compound 132, (2S,4S)-1-((S)-2-tert-butyl-4-oxo-4-(piperidin-1-yl)butanoyl)-N-((1R,2S)-1-(cyclo-propylsulfonyl-carbamoyl)-2-vinylcyclopropyl)-4-(7-methoxy-2-phenylquinolin-4-yloxy)pyrrolidine-2-carboxamide], for which the pEC50 is more than 6.00.
Still for that read-out and setting: in the case of `C=C[C@@H]1C[C@]1(NC(=O)[C@@H]1C[C@@H](Oc2cc(-c3ccccc3)nc3cc(OC)ccc23)CN1C(=O)[C@@H](CC(=O)N1CCCCC1)C(C)(C)C)C(=O)NS(C)(=O)=O` [Compound 68, (2S,4R)-1-((S)-2-tert-butyl-4-oxo-4-(piperidin-1-yl)butanoyl)-4-(7-methoxy-2-phenylquinolin-4-yloxy)-N-((1R,2S)-1-(methylsulfonyl-carbamoyl)-2-vinyl-cyclopropyl)pyr-rolidine-2-carboxamide] it was more than 6.00.
The same measure, in the same setting: in the case of `C=C[C@@H]1C[C@]1(NC(=O)[C@@H]1C[C@@H](Oc2cc(-c3ccccc3)nc3ccc(OC)cc23)CN1C(=O)[C@@H](CC(=O)N1CCCCC1)C(C)(C)C)C(=O)NS(=O)(=O)C1CC1` [Compound 229, (2S,4R)-1-((S)-2-tert-butyl-4-oxo-4-(piperidin-1-yl)butanoyl)-N-((1R)-1-(cyclopropyl-sulfonylcarbamoyl)-2-vinylcyclopropyl)-4-(6-methoxy-2-phenylquinolin-4-yloxy)pyrrolidine-2-carboxamide] it was more than 6.00; in that of `C=C[C@@H]1CC1(NC(=O)[C@@H]1C[C@@H](Oc2cc(-c3nc(C(C)C)cs3)nc3c(C)c(OC)ccc23)CN1C(=O)[C@@H](CC(=O)N1CCC(C(F)(F)F)CC1)C(C)(C)C)C(=O)NS(=O)(=O)C1CC1` (stereo in doubt) [Compound 250, (2S,4R)-1-((S)-2-tert-butyl-4-oxo-4-(4-(trifluoro-methyl)piperidin-1-yl)butanoyl)-N-((S)-1-(cyclopropyl-sulfonylcarbamoyl)-2-vinylcyclopropyl)-4-(2-(4-isopropylthiazol-2-yl)-7-methoxy-8-methylquinolin-4-yloxy)pyrrolidine-2-carboxamide], more than 6.00; in that of `C=C[C@@H]1C[C@]1(NC(=O)[C@@H]1C[C@@H](Oc2cc(-c3ccccn3)nc3c(Cl)c(OC)ccc23)CN1C(=O)[C@@H](CC(=O)N1CCCC(F)(F)C1)C(C)(C)C)C(=O)NS(=O)(=O)C1CC1` [Compound 181, (2S,4R)-1-((S)-2-tert-butyl-4-(3,3-difluoropiperidin-1-yl)-4-oxobutanoyl)-4-(8-chloro-7-methoxy-2-(pyridin-2-yl)quinolin-4-yloxy)-N-((1R,2S)-1-(cyclopropyl-sulfonylcarbamoyl)-2-vinyl-cyclopropyl)pyr-rolidine-2-carboxamide], more than 6.00.
In the case of `C=C[C@@H]1C[C@]1(NC(=O)[C@@H]1C[C@@H](Oc2cc(-c3ccccn3)nc3cc(OC)ccc23)CN1C(=O)[C@@H](CC(=O)N1CCC(F)(F)CC1)C(C)(C)C)C(=O)NS(=O)(=O)C1CC1` [Compound 216, (2S,4R)-1-((S)-2-tert-butyl-4-(4,4-difluoropiperidin-1-yl)-4-oxobutanoyl)-N-((1R)-1-(cyclo-propylsulfonyl-carbamoyl)-2-vinylcyclopropyl)-4-(7-methoxy-2-(pyridin-2-yl)quinolin-4-yloxy)pyrrolidine-2-carboxamide], the pEC50 was more than 6.00.

The assay is the same for the next values; noted with them: Hepatitis C virus, Huh-7.
The compound `C=CC1CC1(NC(=O)[C@@H]1C[C@@H](Oc2cc(-c3ccccc3)nc3cc(OC)ccc23)CN1C(=O)[C@@H](CC(=O)O)C(C)(C)C)C(=O)OCC` (stereo partly drawn) [Compound 11, (3S)-3-((2S,4R)-2-(1-(ethoxycarbonyl)-2-vinylcyclopropylcarbamoyl)-4-(7-methoxy-2-phenylquinolin-4-yloxy)pyrrolidine-1-carbonyl)-4,4-dimethylpentanoic acid] gave a pEC50 not below 5.00.

The record behind these values is US9133115B2 (ACHILLION PHARMACEUTICALS, INC., priority 2008, dated 2015).
